{
  "source": "patent US20020002294A1",
  "about": "“Estrogenic compounds as antiangiogenic agents” (priority 1997, published 2002)",
  "key": {"[1]": {"test_system": "MDA-MB-435 estrogen receptor-negative human breast carcinoma cells", "assay": "In Vivo Tumor Growth Inhibition", "parameters": "species or system SCID mice", "settings": "29 days at 75 mg/kg p.o.", "protocol": "To determine the antitumor activity of 2-ME and derivatives, SCID mice were s.c. inoculated with 10^6 MDA-MB-435 estrogen receptor-negative human breast carcinoma cells. Treatment was initiated on day 12 when tumor volumes reached 75-100 mm3 in volume. Drugs were suspended in 0.5 g/100 ml of carboxymethylcellulose with sterile glass beads, vortexed for 5 minutes, and administered p.o. in a volume of 0.1 ml. Control mice received 0.1 ml of carboxymethylcellulose p.o. Serial caliper measurements of perpendicular diameters were used to calculate tumor volume using the following: (shortest diameter)^2×(longest diameter)×0.52. T/C was calculated as the volume of treated tumors over the volume of control tumors. A smaller number indicates a greater inhibition of tumor growth."}, "[2]": {"test_system": "tubulin", "assay": "inhibition of tubulin polymerization in vitro (turbidity at 350 nm)", "format": "biochemical", "protocol": "Anti-mitotic activity can be evaluated by testing the ability of an estradiol derivative to inhibit tubulin polymerization and microtubule assembly in vitro. Microtubule assembly is followed in a Gilford recording spectrophotometer (model 250 or 2400S) equipped with electronic temperature controllers. A reaction mixture (all concentrations refer to a final reaction volume of […]) contains 1.0 M monosodium glutamate (ph 6.6), 1. omg/ml (10 μM) tubulin, 1.0 mM MgCl2, 4% (v/v) dimethylsulfoxide and 20-75μM of a composition to be tested. The 0.24 ml reaction mixtures are incubated for 15 min. at 37° C. and then chilled on ice. After addition of 10p1 2.5mM GTP, the reaction mixture is transferred to a cuvette at 0° C., and a baseline established. At time zero, the temperature controller of the spectrophotometer is set at 37° C. Microtubule assembly is evaluated by increased turbity at 350 nm.\nA. Each reaction mixture (all concentrations refer to the final reaction volume of 0.25 ml) contained 1.0 M monosodium glutamate (pH 6.6), 1.0 mg/ml (10 μM) tubulin, 1.0 mM MgCl2, 4% (v/v) dimethylsulfoxide, and either 0 (curve 1), 20μM (curve 2), 40 μM (curve 3), or 75 μM (curve 4) 2-methoxyestradiol. The 0.24 ml reaction mixtures were incubated for 15 min. at 37° C and chilled on ice. After addition of 10 μl of 2.5 mM GTP the reaction mixtures were transferred to cuvettes held at 0° C., and baselines were established. At time zero the temperature controller was set at 37° C. At the times indicated by the vertical dashed lines the temperature controller was set at the indicated temperatures.\nB. Each reaction mixture contained 0.8 M monosodium glutamate (pH 6.6), 1.2 mg/ml (12 μM) tubulin, 4% (v/v) dimethylsulfoxide, and either 0 (curve 1), 1.0 FM (curve 2), 2.0 ,M (curve 3), 3.0 μM (curve 4), or 4.0 μM (curve 5) 2-methoxyestradiol. The 0.24 ml reaction mixtures were incubated for 15 min. at 26° C. and chilled on ice. After addition of 10μl of 10 mM GTP the reaction mixtures were transferred to cuvettes held at 0° C., and baselines were established. At time zero the temperature controller was set at 26° C. At the time indicated by vertical dashed line the temperature controller was set at 0° C.\nThe method is given in Example 1.\nS.D., standard deviation."}},
  "data": [
    {"smiles": "COc1cc2c(cc1O)CCC1C2CCC2(C)C(O)CCC12", "note": "(stereo not drawn) [NSC 659853, 2-Methoxyestradiol]", "values": [
      {"measurement": "T/C (volume of treated tumors over volume of control tumors)", "setting": "[1]", "result": 0.40},
      {"measurement": "inhibition of tubulin polymerization (FIG. 1), in words", "setting": "[2]; 20-75 μM (A) or 1.0-4.0 μM (B) 2-methoxyestradiol", "result": "inhibition of tubulin polymerization"},
      {"measurement": "IC50", "setting": "[2]; read-out: IC50 (concentration required to inhibit tubulin polymerization by 50%), mean ± S.D., method of Example 1", "result": "1900 ± 200", "unit": "nM"}
    ]}
  ]
}
